Experimental data reported in US11274106B2, “Topoisomerase inhibitors with antibacterial and anticancer activity” (THE BOARD OF TRUSTEES OF THE UNIVERSITY OF ILLINOIS, priority 2017, dated 2022).
Entries after “also recorded” stand apart in the source; their conditions may differ. Read-outs that look alike come from different tables or passages of the source.

Assays:
[1] = tested on: MDA-MB-231 triple negative breast cancer cells; assay: Antiproliferative SRB assay, MDA-MB-231; assay type: cell-based; conditions: for IC50: SRB assay, mean ± SEM
Experimental: FIG. 1. […] Cell death measured by SRB assay after 72 hour of compound exposure (n≥3 biological replicates, error bars show SEM). IC50 values given as mean±SEM from ≥3 biological replicates.
To investigate the feasibility of developing a class of antitumor antibiotics based upon the DNM scaffold, the ability of the DNM to exert an antiproliferative effect against MDA-MB-231 breast cancer cells was evaluated.

[2] = tested on: BT-474; assay: Antiproliferative SRB assay, BT-474; assay type: cell-based; conditions: for IC50: Homo sapiens, BT-474, 72 h, Breast cancer, mean ± SEM
Excerpt: (§1) Topoisomerase inhibitors such as DOX are used as single agent and in combination therapy to treat a wide-range of cancer types.

[3] = tested on: HCT-116; assay: Antiproliferative SRB assay, HCT-116; assay type: cell-based; conditions: Homo sapiens, HCT-116, 72 h, Colon cancer, mean ± SEM
Excerpt: as §1

[4] = tested on: HeLa; assay: Antiproliferative SRB assay, HeLa; assay type: cell-based; conditions: Homo sapiens, 72 h, Ovarian cancer (footnote e), mean ± SEM
Excerpt: as §1

[5] = tested on: ES-2; assay: Antiproliferative SRB assay, ES-2; assay type: cell-based; conditions: Homo sapiens, ES-2, 72 h, Cervical cancer (footnote f), mean ± SEM
Excerpt: as §1

[6] = tested on: IMR32; assay: Antiproliferative SRB assay, IMR32; assay type: cell-based; conditions: Homo sapiens, IMR-32, 72 h, Neuroblastoma, mean ± SEM
Excerpt: as §1

[7] = tested on: HL-60; assay: Cell viability Alamar Blue assay, HL-60; assay type: cell-based; conditions: Homo sapiens, HL-60, 72 h, Leukemia, mean ± SEM
Excerpt: as §1

[8] = target: E. coli TopoIV (Escherichia coli, UniProt P0AFI2+P20083); assay: E. coli TopoIV decatenation assay; assay type: biochemical
Excerpt: FIG. 8. In vitro inhibitory activity of 6DNM-NH3, Ph-6DNM-NH3 against E. coli DNA gyrase and TopoIV.
DNM and its derivatives exert their antibacterial effects through inhibition of the DNA Gyrase.

[9] = target: Top2α (Homo sapiens, UniProt P11388); assay: Top2α kDNA decatenation assay; assay type: biochemical; conditions: gel electrophoresis, FIG. 3a
Excerpt: (§2) FIG. 3. DNM derivatives are dual Top1/Top2 inhibitors with different modes of inhibition. (a) Inhibition of decatenating ability of Top2α with increasing concentrations of ETP, 6DNM-NH3, 6DNM-Pyr, and Ph-6DNM-NH3. K, kinetoplast DNA; OC, open circular; R, relaxed. (b) Inhibition of relaxing ability of Top1 with increasing concentrations of CPT, 6DNM-NH3, 6DNM-Pyr, and Ph-6DNM-NH3. R, relaxed; S, supercoiled. (c) Detection of Top2a-DNA using the ICE Assay. Genomic DNA ([…]) of H460 cells treated with drugs (50 μM, 30 min) was applied to nitrocellulose membrane and immunoblotted for Top2a. (d) Detection of Top1-DNA adducts using ICE Assay. Same procedure as (c) using 1 μg of DNA. (e) Inhibition of ETP-induced poisoning of Top2a. H460 cells treated with indicated concentrations of inhibitor for 30 min prior to treatment with ETP (50 μM). Detection of Top2α as in (c).
FIG. 9. Mechanism of action studies: Topoisomerases form transient covalent complexes with DNA to modify DNA topology. Ph6DNM-NH3 and 6DNM-NH3 inhibit bacterial DNA gyrase and human topoisomerase II in vitro.
The ability of Ph-6DNM-NH3, 6DNM-NH3, and 6DNM-Pyr to inhibit Top2α was assessed using a decatenation assay. In this assay, Top2α is incubated with kinetoplast DNA (kDNA), a large network of catenated minicircles and maxicircles of DNA. As Top2α decatenates the kDNA, it releases supercoiled and relaxed DNA minicircles that are easily separated from the kDNA by gel electrophoresis.

[10] = target: T1, Top2cc (Homo sapiens, UniProt P11388); assay: ICE assay for Top2α-DNA complexes in H460 cells; assay type: cell-based; conditions: for Accumulation of Top2cc (ICE assay): 50 μM; for Effect on ETP-induced Top2cc: pre-treatment 30 minutes prior to ETP (50 μM)
T1 construct: endogenous in cells; host or cells: H460
Excerpt: as §2
(§3) The in vivo complex of enzyme (ICE) assay can be used to distinguish poisons from catalytic inhibitors. The ICE assay consists of isolating the genomic DNA of cells treated with small molecules in a manner the preserves covalent DNA-protein complexes and applying it to nitrocellulose membranes. Because topoisomerase poisons stabilize the cleavage complexes, DNA-protein complexes can be detected by immunoblotting for specific topoisomerases, whereas catalytic inhibitors produce no such result. To determine if DNM derivatives are acting as poisons or catalytic inhibitors, H460 human lung cells were exposed to 50 μM of the Top2 poison ETP, Ph-6DNM-NH3, 6DNM-NH3, and 6DNM-Pyr and assessed for their ability to stabilize Top2cc. […] In a similar fashion, next investigated was the mode of Top1 inhibition using the ICE assay (FIG. 3b).

[11] = target: T2, Top1cc (Homo sapiens, UniProt P11387); assay: ICE assay for Top1-DNA adducts in H460 cells; assay type: cell-based; conditions: for Accumulation of Top1cc (ICE assay): H460 cells, 50 μM, 30 min; for Mode of topoisomerase inhibition: in vitro and cell culture experiments taken together
T2 construct: endogenous in cells; host or cells: H460
T2 sequence (P11387 2-765 limits assumed): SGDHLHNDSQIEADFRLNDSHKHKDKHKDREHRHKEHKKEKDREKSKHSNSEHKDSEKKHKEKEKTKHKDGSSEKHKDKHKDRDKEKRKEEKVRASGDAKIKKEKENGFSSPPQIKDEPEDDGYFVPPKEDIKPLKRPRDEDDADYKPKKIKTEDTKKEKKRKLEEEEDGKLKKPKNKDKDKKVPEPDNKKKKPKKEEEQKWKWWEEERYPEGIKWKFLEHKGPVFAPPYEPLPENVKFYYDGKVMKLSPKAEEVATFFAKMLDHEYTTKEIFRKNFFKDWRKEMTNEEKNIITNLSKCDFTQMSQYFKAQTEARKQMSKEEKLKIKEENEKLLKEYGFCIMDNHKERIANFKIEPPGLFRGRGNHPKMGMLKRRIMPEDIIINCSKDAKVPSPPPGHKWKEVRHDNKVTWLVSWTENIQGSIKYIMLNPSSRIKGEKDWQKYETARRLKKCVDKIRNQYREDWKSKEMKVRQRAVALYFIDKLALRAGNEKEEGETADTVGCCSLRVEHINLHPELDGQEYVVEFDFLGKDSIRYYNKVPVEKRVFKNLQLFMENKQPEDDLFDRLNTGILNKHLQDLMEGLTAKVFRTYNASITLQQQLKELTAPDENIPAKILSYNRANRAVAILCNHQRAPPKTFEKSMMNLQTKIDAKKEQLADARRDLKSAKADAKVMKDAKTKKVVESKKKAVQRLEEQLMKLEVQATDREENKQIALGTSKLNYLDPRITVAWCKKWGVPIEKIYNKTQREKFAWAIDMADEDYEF
Excerpt: as §2, §3

[12] = Homo sapiens, MDA-MB-231, 72 h, Breast cancer, read-out: 72 hour IC50, MDA-MB-231

T1 sequence (P11388 whole entry): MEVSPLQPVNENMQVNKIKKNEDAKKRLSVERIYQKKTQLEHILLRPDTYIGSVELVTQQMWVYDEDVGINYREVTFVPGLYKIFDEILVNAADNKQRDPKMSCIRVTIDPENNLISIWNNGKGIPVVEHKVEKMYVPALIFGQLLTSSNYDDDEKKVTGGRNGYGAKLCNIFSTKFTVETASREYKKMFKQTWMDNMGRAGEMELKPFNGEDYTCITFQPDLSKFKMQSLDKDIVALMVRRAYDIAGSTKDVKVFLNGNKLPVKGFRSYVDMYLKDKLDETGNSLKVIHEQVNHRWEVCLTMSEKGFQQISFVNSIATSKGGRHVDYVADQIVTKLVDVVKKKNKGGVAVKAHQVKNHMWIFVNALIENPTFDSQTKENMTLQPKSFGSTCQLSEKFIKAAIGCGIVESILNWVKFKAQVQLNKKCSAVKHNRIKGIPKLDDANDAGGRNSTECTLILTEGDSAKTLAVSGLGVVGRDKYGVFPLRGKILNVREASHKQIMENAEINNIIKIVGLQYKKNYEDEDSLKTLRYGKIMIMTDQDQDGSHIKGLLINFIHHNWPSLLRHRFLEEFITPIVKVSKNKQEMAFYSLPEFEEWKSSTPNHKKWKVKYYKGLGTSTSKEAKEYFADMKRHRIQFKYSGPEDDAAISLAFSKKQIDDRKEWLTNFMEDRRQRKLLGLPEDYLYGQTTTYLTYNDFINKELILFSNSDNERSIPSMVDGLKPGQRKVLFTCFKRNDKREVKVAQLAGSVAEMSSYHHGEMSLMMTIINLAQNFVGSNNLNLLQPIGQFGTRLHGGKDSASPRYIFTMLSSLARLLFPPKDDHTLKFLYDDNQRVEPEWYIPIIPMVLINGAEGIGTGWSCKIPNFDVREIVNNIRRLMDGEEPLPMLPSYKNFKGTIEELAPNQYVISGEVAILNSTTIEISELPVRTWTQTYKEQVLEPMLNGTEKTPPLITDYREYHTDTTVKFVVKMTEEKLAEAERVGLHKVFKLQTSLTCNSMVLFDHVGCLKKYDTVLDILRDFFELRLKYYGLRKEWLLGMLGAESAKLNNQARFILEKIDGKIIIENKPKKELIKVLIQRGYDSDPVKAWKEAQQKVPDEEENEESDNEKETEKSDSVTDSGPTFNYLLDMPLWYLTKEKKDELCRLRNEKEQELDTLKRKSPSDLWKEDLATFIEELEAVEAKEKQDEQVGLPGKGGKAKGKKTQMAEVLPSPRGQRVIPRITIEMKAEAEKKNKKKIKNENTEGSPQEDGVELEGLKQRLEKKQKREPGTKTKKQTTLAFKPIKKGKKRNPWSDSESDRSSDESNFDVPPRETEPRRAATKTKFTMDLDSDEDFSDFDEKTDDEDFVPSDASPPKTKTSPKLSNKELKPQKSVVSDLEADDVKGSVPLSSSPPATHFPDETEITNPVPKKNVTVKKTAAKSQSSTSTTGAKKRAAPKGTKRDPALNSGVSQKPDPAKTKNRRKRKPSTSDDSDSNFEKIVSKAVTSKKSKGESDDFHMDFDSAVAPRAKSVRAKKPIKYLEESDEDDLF
Sequence of Top2α (P11388 whole entry): as above
Sequence of E. coli TopoIV (P0AFI2 whole entry): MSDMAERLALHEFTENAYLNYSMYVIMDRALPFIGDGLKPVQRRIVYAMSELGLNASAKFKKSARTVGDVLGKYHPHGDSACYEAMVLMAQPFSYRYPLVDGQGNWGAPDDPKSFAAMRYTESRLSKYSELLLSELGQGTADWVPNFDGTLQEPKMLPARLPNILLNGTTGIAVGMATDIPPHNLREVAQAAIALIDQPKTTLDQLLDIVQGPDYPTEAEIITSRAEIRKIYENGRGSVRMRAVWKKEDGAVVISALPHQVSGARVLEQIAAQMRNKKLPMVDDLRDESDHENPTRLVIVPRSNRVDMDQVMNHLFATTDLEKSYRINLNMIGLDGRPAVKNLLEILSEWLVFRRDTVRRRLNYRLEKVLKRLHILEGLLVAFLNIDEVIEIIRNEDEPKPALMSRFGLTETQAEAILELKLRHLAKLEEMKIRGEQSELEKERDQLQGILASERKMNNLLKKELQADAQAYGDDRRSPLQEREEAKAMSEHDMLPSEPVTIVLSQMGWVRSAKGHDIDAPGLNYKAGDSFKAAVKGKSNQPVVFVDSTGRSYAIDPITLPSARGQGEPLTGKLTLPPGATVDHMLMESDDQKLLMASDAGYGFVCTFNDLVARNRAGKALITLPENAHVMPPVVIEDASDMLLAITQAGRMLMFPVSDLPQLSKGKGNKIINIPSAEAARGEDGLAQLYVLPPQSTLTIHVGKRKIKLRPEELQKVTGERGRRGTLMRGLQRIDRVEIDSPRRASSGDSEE
Sequence of E. coli TopoIV (P20083 whole entry): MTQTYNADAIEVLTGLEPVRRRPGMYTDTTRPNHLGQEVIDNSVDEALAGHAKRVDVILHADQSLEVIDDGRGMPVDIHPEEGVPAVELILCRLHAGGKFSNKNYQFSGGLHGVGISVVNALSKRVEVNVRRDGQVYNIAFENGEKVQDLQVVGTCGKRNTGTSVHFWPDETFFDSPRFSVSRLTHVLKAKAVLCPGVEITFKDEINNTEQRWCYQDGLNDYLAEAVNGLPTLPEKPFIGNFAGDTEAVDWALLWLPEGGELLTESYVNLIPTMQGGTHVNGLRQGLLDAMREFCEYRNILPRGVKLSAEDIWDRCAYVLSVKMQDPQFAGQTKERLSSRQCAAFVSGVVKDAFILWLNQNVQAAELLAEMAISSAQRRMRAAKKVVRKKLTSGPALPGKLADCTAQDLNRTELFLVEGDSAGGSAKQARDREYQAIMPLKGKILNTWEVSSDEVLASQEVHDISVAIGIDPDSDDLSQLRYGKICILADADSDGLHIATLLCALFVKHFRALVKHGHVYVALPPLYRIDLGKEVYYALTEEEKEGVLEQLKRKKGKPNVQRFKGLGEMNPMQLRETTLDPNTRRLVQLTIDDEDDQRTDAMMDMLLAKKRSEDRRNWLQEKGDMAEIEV

IC50 ([1]; Homo sapiens, MDA-MB-231, 72 h, 72 hour compound exposure, read-out: MDA-MB-231 IC50)	SMILES	IC50 [1, 12]	Improvement in potency relative to 6DNM-NH3 ([1]; MDA-MB-231, Table 1)	IC50 ([1]; 72 hour compound exposure, read-out: MDA-MB-231 IC50)	Effectiveness in BT-474 after Top1 degradation ([2]; FIG. 4b, 72 hour)	IC50 [2]	IC50 [3]	IC50 [4]	IC50 [5]	IC50 [6]	IC50 [7]	Inhibition of purified E. coli TopoIV [8]	Inhibition of decatenating function of Top2α ([9]; listed as Ph-6DNM-NH3)	Accumulation of Top2cc (ICE assay) [10]	Effect on ETP-induced Top2cc [10]	Accumulation of Top1cc (ICE assay) [11]	Mode of topoisomerase inhibition [11]	Inhibition of decatenating function of Top2α ([9]; listed as 6DNM-Pyr)
	Cc1cc(=O)n2c3c(c4c(cc13)c1ccccc1c(=O)n4C)OCC2CN (centres unmarked) [Compound 15]	30 ± 6 nM	4.5 fold	48 ± 8 nM	similarly reduced, however to a lesser extent	690 ± 50 nM	37 ± 13 nM	56 ± 5 nM	28 ± 6 nM	8.6 ± 0.1 nM	470 ± 90 nM	able to inhibit	inhibit the decatenating function of Top2α in a dose-dependent manner; also recorded: the least active derivative in this in vitro assay	only ETP treatment resulted in the accumulation of Top2cc	dose-dependent decrease in ETP-induced Top2cc	leads to the accumulation of Top1cc	Top1 poison/Top2α catalytic inhibitor	
14 ± 1 nM	Cc1cc(=O)n(C)c2c3c4c(cc12)c(C)cc(=O)n4C(CN1CCCC1)CO3 (centres unmarked) [Compound 20]	14 ± 1 nM				91 ± 4 nM	9 ± 1 nM	27 ± 1 nM	17 ± 4 nM	4.4 ± 0.3 nM	48 ± 11 nM			only ETP treatment resulted in the accumulation of Top2cc	dose-dependent decrease in ETP-induced Top2cc	neither 6DNM-NH3 nor 6DNM-Pyr, leads to the accumulation of Top1cc	dual Top1/Top2α catalytic inhibitors	inhibit the decatenating function of Top2α in a dose-dependent manner; also recorded: inhibiting Top2α function at lower concentrations than 6DNM-NH3
